In US11345701B1, “KRAS mutant protein inhibitors” (Jacobio Pharmaceuticals Co., Ltd., priority 2021, dated 2022):
Where two headings read alike, the source gives them in different places.

How the values were obtained:
[1] = Mouse pharmacokinetic study; type: in vivo, Balb/c mouse; details: plasma, Balb/c mouse (female)
Procedure: The purpose of this study was to evaluate the pharmacokinetic properties of compounds in Balb/c mouse (♀) following single dose administration. The day before administration, mice were fasted overnight and free access to water. Six mice were needed for each compound and the six mice were divided into two groups (n=3/group), group A and group B. Mice in group A were treated with a single 3 mg/kg dose of compound (iv). Mice in group B were treated with a single 10 mg/kg dose of compound (po). For each mouse in group A, blood samples were collected at pre-dose, and at the time point of 0.083, 0.25, 0.5, 1, 2, 4, 6, 8 and 24 h post-dose. For each mouse in group B, blood samples were collected at pre-dose, and at the time point of 0.25, 0.5, 1, 2, 3, 4, 6, 8 and 24 h post-dose. Blood samples were placed on ice until centrifugation to obtain plasma samples. The plasma samples were stored at −80° C. until analysis. The concentration of compound in plasma samples was determined using a LC-MS/MS method.

[2] = Dog pharmacokinetic study; type: in vivo, beagle dog; details: plasma, beagle dog; for clearance / Vd: 1 mg/kg, iv; for Vd: read-out: VSS; for AUC(0-t) / Cmax / bioavailability: 3 mg/kg, po; for AUC(0-t): read-out: AUC0-24h; for Cmax: read-out: Cmax; for bioavailability: read-out: Oral BA (F %)
Procedure: (§1) The purpose of this study was to evaluate the pharmacokinetic properties of compounds in beagle dog following single dose administration. The day before administration, dogs were fasted overnight and free access to water. Four beagle dogs were needed for each compound and the four dogs were divided into two groups, group A and group B (one male(♂) and one female (♀) in each group). Dogs in group A were treated with a single 1 mg/kg dose of compound (iv). Dogs in group B were treated with a single 3 mg/kg dose of compound (po). For dogs in group A, blood samples were collected at pre-dose, and at the time point of 0.083, 0.25, 0.5, 1, 2, 4, 6, 8 and 24 h post-dose. For dogs in group B, blood samples were collected at pre-dose, and at the time point of 0.25, 0.5, 1, 2, 4, 6, 8 and 24 h post-dose. Blood samples were placed on ice until centrifugation to obtain plasma samples. The plasma samples were stored at −80° C. until analysis. The concentration of compound in plasma samples was determined using a LC-MS/MS method.

[3] = Cynomolgus monkey pharmacokinetic study; type: in vivo; details: plasma, cynomolgus monkey; for clearance / Vd: 1 mg/kg, iv; for Vd: read-out: VSS; for AUC(0-t) / Cmax / bioavailability: 3 mg/kg, po; for AUC(0-t): read-out: AUC0-24h; for Cmax: read-out: Cmax; for bioavailability: read-out: Oral BA (F %)
Procedure: as §1, with “cynomolgus monkey” for “beagle dog”, “monkeys” for “dogs”, “monkeys are” for “beagle dogs were”, “male (♂)” for “male(♂)”, “Monkeys” for “Dogs”

[4] = target: HIS-KRAS(G12C) (Homo sapiens (Human), UniProt P01116, G12C); test: SOS1 catalyzed nucleotide exchange assay (TR-FRET); type: biochemical; details: GDP-loaded HIS-KRAS(G12C), 1 hour pre-incubation, TR-FRET
Procedure: TR-FRET signals were then read on Tecan Spark multimode microplate reader. […] TR-FRET ratios for each individual wells were calculated by equation: TR-FRET ratio=(Signal F515/Signal F486)*10000. Then the data were analyzed using a 4-parameter logistic model to calculate IC50 values.

[5] = test system: NCI-H358 cells expressing KRAS G12C mutant protein; test: Phospho-ERK1/2(THR202/TYR204) HTRF assay; type: cell-based; details: 2 hours incubation, read-out: p-ERK IC50
Procedure: The NCI-H358 cells in culture medium were seeded in 96-well plates at a concentration of 40,000 cells/well and then put in a 37° C./5% CO2 cell incubator to incubate overnight. […] After 2 hours incubation in a 37° C./5% CO2 cell incubator, the assay medium in 96-well plates was removed, then 50 μL of 1× blocking reagent-supplemented lysis buffer (Cisbio) was added and the plates were incubated at 25° C. for 45 min with shaking. 10 μL of cell lysates from the 96-well plates were transferred to a 384-well plate (Greiner) containing 2.5 μL/well HTRF® pre-mixed antibodies (Cisbio 64AERPEH). Incubate 4 hours at 25° C. and then read HTRF signals on Tecan Spark multimode microplate reader. The data were analyzed using a 4-parameter logistic model to calculate IC50 values.

Sequence of HIS-KRAS(G12C) (P01116 other isoform, or with tags, fused parts or gaps G12C): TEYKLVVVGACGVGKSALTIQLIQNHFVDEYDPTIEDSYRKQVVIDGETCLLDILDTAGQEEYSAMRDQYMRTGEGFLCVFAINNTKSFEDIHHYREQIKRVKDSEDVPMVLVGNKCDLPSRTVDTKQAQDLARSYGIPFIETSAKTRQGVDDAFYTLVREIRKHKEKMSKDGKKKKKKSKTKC

**Q.** Which results are given for `C=CC(=O)N1CCN(c2nc(=O)n(-c3c(C)ccnc3C(C)C)c3nc(-c4c(O)cccc4F)c(F)cc23)[C@@H](C)C1` [Amg-510, reference compound]?
**A.** clearance ([1]; 3 mg/kg, iv): 40.5 mL/min/kg; Vd ([1]; 3 mg/kg, iv, read-out: Vss): 1.64 L/kg; AUC(0-t) ([1]; 10 mg/kg, po, read-out: AUC0-24 h): 1810 ng·h/mL; Cmax ([1]; 10 mg/kg, po, read-out: Cmax): 1600 ng/mL; bioavailability ([1]; 10 mg/kg, po, read-out: Oral BA (F %)): 43.9%; clearance ([2]; female): 20.1 mL/min/kg; Vd ([2]; female): 0.543 L/kg; AUC(0-t) ([2]; female): 404 ng·h/mL; Cmax ([2]; female): 450 ng/mL; bioavailability ([2]; female): 16.4%; clearance ([2]; male): 21.1 mL/min/kg; Vd ([2]; male): 0.535 L/kg; AUC(0-t) ([2]; male): 1990 ng·h/mL; Cmax ([2]; male): 1840 ng/mL; bioavailability ([2]; male): 84.4%; clearance ([3]; female): 84.3 mL/min/kg; Vd ([3]; female): 2.01 L/kg; AUC(0-t) ([3]; female): 241 ng·h/mL; Cmax ([3]; female): 100 ng/mL; bioavailability ([3]; female): 41.3%; clearance ([3]; male): 25.5 mL/min/kg; Vd ([3]; male): 0.775 L/kg; AUC(0-t) ([3]; male): 214 ng·h/mL; Cmax ([3]; male): 133 ng/mL; bioavailability ([3]; male): 11%

**Q.** Which IC50 [4] does the source give for `C=CC(=O)N1CCN(c2nc(=O)n(-c3c(C)ccnc3C(C)C)c3nc(-c4c(N)c(F)c(F)c(F)c4F)c(F)cc23)C[C@H]1C` [Compound 4, 4-((R)-4-acryloyl-3-methylpiperazin-1-yl)-7-(2-amino-3,4,5,6-tetrafluorophenyl)-6-fluoro-1-(2-isopropyl-4-methylpyridin-3-yl)pyrido[2,3-d]pyrimidin-2(1H)-one] here?
**A.** 10.3 nM

**Q.** Which IC50 [4] does the source give for `C=CC(=O)N1CCN(c2nc(=O)n(-c3c(C)ccnc3C(C)C)c3nc(-c4c(F)c(F)c(F)c(N)c4Cl)c(F)cc23)[C@@H](C)C1` (single isomer, unassigned) [Compound 1-1] here?
**A.** 4.08 nM

**Q.** What about the IC50 ([5]; Homo sapiens, NCI-H358, 2 h) of the same molecule?
**A.** 16.6 nM

**Q.** With `C=CC(=O)N1CCN(c2nc(=O)n(-c3c(C)ccnc3C(C)C)c3nc(-c4c(N)c(F)c(F)c(F)c4F)c(F)cc23)[C@@H](C)C1` (atropisomer, axis not shown; (P)) [Compound 2-2, (P)-4-((S)-4-acryloyl-2-methylpiperazin-1-yl)-7-(2-amino-3,4,5,6-tetrafluorophenyl)-6-fluoro-1-(2-isopropyl-4-methylpyridin-3-yl)pyrido[2,3-d]pyrimidin-2(1H)-one] as the molecule, how does the IC50 [4] read?
**A.** 61.8 nM

**Q.** What about the IC50 [5] of the same molecule?
**A.** 681 nM

**Q.** For `C=CC(=O)N1CCN(c2nc(=O)n(-c3c(C)ccnc3C(C)C)c3nc(-c4c(F)c(F)c(F)c(N)c4Cl)c(F)cc23)[C@@H](C)C1` (single isomer, unassigned) [Compound 1-2], which IC50 [4] is on record?
**A.** 121 nM

**Q.** With `C=CC(=O)N1[C@H](C)CN(c2nc(=O)n(-c3c(C)ccnc3C(C)C)c3nc(-c4c(F)c(F)c(F)c(N)c4Cl)c(F)cc23)C[C@@H]1C` (single isomer, unassigned) [Compound 7-2] as the molecule, how does the IC50 [4] read?
**A.** 307 nM

**Q.** Which IC50 [4] does the source give for `C=CC(=O)N1CCN(c2nc(=O)n(-c3c(C)ccnc3C(C)C)c3nc(-c4c(F)c(F)c(F)c(N)c4Cl)c(F)cc23)[C@@H](C)C1` [Compound 1, 4-((S)-4-acryloyl-2-methylpiperazin-1-yl)-7-(3-amino-2-chloro-4,5,6-trifluorophenyl)-6-fluoro-1-(2-isopropyl-4-methylpyridin-3-yl)pyrido[2,3-d]pyrimidin-2(1H)-one] here?
**A.** 7.25 nM

**Q.** And the IC50 ([5]; Homo sapiens, NCI-H358, 2 h)?
**A.** 70.1 nM

**Q.** Which IC50 [4] does the source give for `C=CC(=O)N1CCN(c2nc(=O)n(-c3c(C)ccnc3C(C)C)c3nc(-c4c(N)c(F)c(F)c(F)c4F)c(F)cc23)CC1` [Compound 3, 4-(4-acryloylpiperazin-1-yl)-7-(2-amino-3,4,5,6-tetrafluorophenyl)-6-fluoro-1-(2-isopropyl-4-methylpyridin-3-yl)pyrido[2,3-d]pyrimidin-2(1H)-one] here?
**A.** 5.51 nM

**Q.** Which IC50 [4] does the source give for `C=CC(=O)N1CCN(c2nc(=O)n(-c3c(C)ccnc3C(C)C)c3nc(-c4c(N)c(F)c(F)c(F)c4F)c(F)cc23)CC1` (single isomer, unassigned) [Compound 3-2, 4-(4-acryloylpiperazin-1-yl)-7-(2-amino-3,4,5,6-tetrafluorophenyl)-6-fluoro-1-(2-isopropyl-4-methylpyridin-3-yl)pyrido[2,3-d]pyrimidin-2(1H)-one] here?
**A.** 234 nM

**Q.** Which IC50 [4] does the source give for `C=CC(=O)N1[C@H](C)CN(c2nc(=O)n(-c3c(C)ccnc3C(C)C)c3nc(-c4c(N)c(F)c(F)c(F)c4F)c(F)cc23)C[C@@H]1C` (single isomer, unassigned) [Compound 5-2] here?
**A.** 96.1 nM

**Q.** And the IC50 [5]?
**A.** 774 nM

**Q.** For `C=CC(=O)N1CCN(c2nc(=O)n(-c3c(C)ccnc3C(C)C)c3nc(-c4c(F)c(F)c(F)c(N)c4Cl)c(F)cc23)C[C@H]1C` [Compound 6, 4-((R)-4-acryloyl-3-methylpiperazin-1-yl)-7-(3-amino-2-chloro-4,5,6-trifluorophenyl)-6-fluoro-1-(2-isopropyl-4-methylpyridin-3-yl)pyrido[2,3-d]pyrimidin-2(1H)-one], which IC50 [4] is on record?
**A.** 40.1 nM

**Q.** Which IC50 [4] does the source give for `C=CC(=O)N1[C@H](C)CN(c2nc(=O)n(-c3c(C)ccnc3C(C)C)c3nc(-c4c(N)c(F)c(F)c(F)c4F)c(F)cc23)C[C@@H]1C` [Compound 5, 4-((3S,5R)-4-acryloyl-3,5-dimethylpiperazin-1-yl)-7-(2-amino-3,4,5,6-tetrafluorophenyl)-6-fluoro-1-(2-isopropyl-4-methylpyridin-3-yl)pyrido[2,3-d]pyrimidin-2(1H)-one] here?
**A.** 5.41 nM

**Q.** What about the IC50 ([5]; Homo sapiens, NCI-H358, 2 h) of the same molecule?
**A.** 48.8 nM

**Q.** For `C=CC(=O)N1[C@H](C)CN(c2nc(=O)n(-c3c(C)ccnc3C(C)C)c3nc(-c4c(N)c(F)c(F)c(F)c4F)c(F)cc23)C[C@@H]1C` (single isomer, unassigned) [Compound 5-1], which IC50 [4] is on record?
**A.** 3.3 nM

**Q.** And the IC50 [5]?
**A.** 17.8 nM

**Q.** Which IC50 [4] does the source give for `C=CC(=O)N1[C@H](C)CN(c2nc(=O)n(-c3c(C)ccnc3C(C)C)c3nc(-c4c(F)c(F)c(F)c(N)c4Cl)c(F)cc23)C[C@@H]1C` [Compound 7, 4-((3S,5R)-4-acryloyl-3,5-dimethylpiperazin-1-yl)-7-(3-amino-2-chloro-4,5,6-trifluorophenyl)-6-fluoro-1-(2-isopropyl-4-methylpyridin-3-yl)pyrido[2,3-d]pyrimidin-2(1H)-one] here?
**A.** 17.5 nM

**Q.** With `C=CC(=O)N1CCN(c2nc(=O)n(-c3c(C)ccnc3C(C)C)c3nc(-c4c(N)c(F)c(F)c(F)c4F)c(F)cc23)C[C@H]1C` (single isomer, unassigned) [Compound 4-2] as the molecule, how does the IC50 [4] read?
**A.** 278 nM
